# Results published in patent publication US10806746B2, “Di- and tri-cationic glycosylated antitumor ether lipids, L-gucosylated gaels and rhamnose-linked gaels as cytotoxic agents against epithelial cancer cells and cancer stem cells” (The University of Manitoba, priority 2014, dated 2020).
# Where two headings read alike, the source gives them in different places.
# Tests used:
# Format in all cases: cell-based, human
# JIMT-1 cells = experiment: MTS viability assay, JIMT-1 breast cancer cells
# Procedure: (§1) FIG. 2B. Effects of compounds 1-11 on the viability of JIMT-1 cells. JIMT-1 cells were cultured in DMEM medium supplemented with 10% FBS. Equal numbers were dispersed into 96-well plates. After 24 h, the cells were incubated with compounds 1-11 (0-30 μM) for 48 h. At the end of the incubation, MTS reagent (20% vol/vol) was added and the plates were incubated for 1-4 h. The OD490 was read with a plate reader. Wells with media but no cells were treated in similar fashion and the values utilized as blank. The results represent the mean±standard deviation of 6 independent determinations.
# as §1, with “2J.” for “2B.”, “1, 69-72” for “1-11”, “1, 69-72” for “1-11 (0-30 μM)”
# (§2) The cell lines were cultured from frozen stocks originally obtained from ATCC. MDA-MB-231, JIMT-1, DU145, U81, U251 cells were grown in DMEM medium. BT474, A2780s, A2780cp cells were grown in DMEM/F12 medium supplemented with 10% FBS. MiaPaCa2 was cultured in DMEM supplemented with 10% FBS and 2.5% horse serum. PC3 cells were cultured in F12K medium supplemented with 10% FBS. All the media were supplemented with penicillin/streptomycin.
# (§3) The effects of the GAELs on the viability of the various epithelial cancer cell lines was determined as previously described. Briefly, equal numbers of the cells were dispersed into 96-well plates. After 24 h, the cells were incubated with the compounds (0-30 μM) for 48 h. At the end of the incubation, MTS reagent (20% vol/vol) was added and the plates were incubated for 1-4 h. The OD490 was read with a plate reader. Wells with media but no cells were treated in similar fashion and the values utilized as blank. The results represent the mean±standard deviation of 6 independent determinations.
# DU145 cells = experiment: MTS viability assay, DU145 prostate cancer cells
# Procedure: as §1, with “2D.” for “2B.”, “DU145” for “JIMT-1”
# as §1, with “2H. Effect” for “2B. Effects”, “1, 69-72” for “1-11”, “DU145” for “JIMT-1”, “1, 69-72” for “1-11 (0-30 μM)”
# as §2, §3
# MiaPaCa2 cells = experiment: MTS viability assay, MiaPaCa2 pancreas cancer cells
# Procedure: as §1, with “2F.” for “2B.”, “MiaPaCa2” for “JIMT-1”, “FBS and 2.5% horse serum.” for “FBS.”
# as §1, with “2I.” for “2B.”, “1, 69-72” for “1-11”, “MiaPaCa2” for “JIMT-1”, “FBS and 2.5% horse serum.” for “FBS.”, “1, 69-72” for “1-11 (0-30 μM)”
# as §2, §3
# [1] = test system: BT-474, JIMT-1, MDA-MB-231 (breast), DU145, PC3 (prostate), MiaPaCa2 (pancreas); experiment: MTS viability, panel of epithelial cancer cell lines (ranges over the cell lines); settings: for CC50: read-out: CC50 values, range depending on the cell line
# Procedure: To determine the effect of compounds 1-10 on the viability of the epithelial cancer cell lines, exponentially growing cells, BT-474, JIMT-1, MDA-MB-231 (breast), DU145, PC3 (prostate), MiaPaCa2 (pancreas) were incubated with varying concentrations of 1-8 (0-30 μM) for 48 h followed by viability assays with the MTS reagent.
# as §3
# [2] = range over the cell lines tested, 48 h
# [3] = Homo sapiens, JIMT-1, Table 5, 48 h, read-out: CC50 JIMT1
# [4] = Homo sapiens, JIMT-1, Table 5, 48 h, read-out: CC90 JIMT1
# [5] = Homo sapiens, DU-145, Table 5, 48 h, read-out: CC50 DU-145
# [6] = Homo sapiens, DU-145, Table 5, 48 h, read-out: CC90 DU-145
# [7] = Homo sapiens, MIA PaCa-2, Table 5, 48 h, read-out: CC50 Mlapaca2
# [8] = Homo sapiens, MIA PaCa-2, Table 5, 48 h, read-out: CC90 Mlapaca2
# [9] = Homo sapiens, range over the cell lines tested, 48 h
# [10] = Table 1A, 48 h, read-out: CC50 values JIMT1
# [11] = Table 1B, 48 h, read-out: CC90 values JIMT1
# [12] = Table 1A, 48 h, read-out: CC50 values DU 145
# [13] = Table 1B, 48 h, read-out: CC90 values DU 145
# [14] = Table 1A, 48 h, read-out: CC50 values MiaPaCa2
# [15] = Table 1B, 48 h, read-out: CC90 values MiaPaCa2
smiles,measurement,setting,value
"CCCCCCCCCCCCCCCCOC[C@H](COC1O[C@H](CNCCCCCCCCCCCCN)[C@@H](O)[C@H](O)[C@H]1N)OC (some centres unmarked) [Compound 73, 1-O-Hexadecyl-2-O-methyl-3-O-[6′-N-(12-aminododecyl)-2′,6′-diamino-2′,6′-dideoxy-glucopyranoside]-sn-glycerol]",CC50,"JIMT-1 cells; Table 6, 48 h, read-out: JIMT1 CC50",3.4 µM
same,CC90,"JIMT-1 cells; Table 6, 48 h, read-out: JIMT1 CC90",4.6 µM
same,CC50,"DU145 cells; Table 6, 48 h, read-out: DU145 CC50",3.8 µM
same,CC90,"DU145 cells; Table 6, 48 h, read-out: DU145 CC90",4.8 µM
same,CC50,"MiaPaCa2 cells; Table 6, 48 h, read-out: MiaPaCa2 CC50",4 µM
same,CC90,"MiaPaCa2 cells; Table 6, 48 h, read-out: MiaPaCa2 CC90",6.6 µM
same,CC50,[1]; [2],1.5 to 4 µM
same,cytotoxicity against all cell lines examined,"[1]; tricationic GAELs, FIG. 2O, Table 6",cytotoxic
CCCCCCCCCCCCCCCCOCC(CO[C@@H]1OC(CO)[C@H](O)[C@H](O)C1N)OC (some centres unmarked) [Compound 69],CC50,"JIMT-1 cells; Homo sapiens, JIMT-1, Table 2A, 48 h, read-out: CC50 values JIMT1",6.5 µM
same,CC90,"JIMT-1 cells; Homo sapiens, JIMT-1, Table 2B, 48 h, read-out: CC90 values JIMT1",11 µM
same,CC50,JIMT-1 cells; [3],6.5 µM
same,CC90,JIMT-1 cells; [4],11 µM
same,CC50,"DU145 cells; Homo sapiens, DU-145, Table 2A, 48 h, read-out: CC50 values DU 145",12.5 µM
same,CC90,"DU145 cells; Homo sapiens, DU-145, Table 2B, 48 h, read-out: CC90 values DU 145",16 µM
same,CC50,DU145 cells; [5],12.5 µM
same,CC90,DU145 cells; [6],16 µM
same,CC50,"MiaPaCa2 cells; Homo sapiens, MIA PaCa-2, Table 2A, 48 h, read-out: CC50 values MiaPaCa2",7.5 µM
same,CC90,"MiaPaCa2 cells; Homo sapiens, MIA PaCa-2, Table 2B, 48 h, read-out: CC90 values MiaPaCa2",18 µM
same,CC50,MiaPaCa2 cells; [7],7.5 µM
same,CC90,MiaPaCa2 cells; [8],18 µM
same,CC50,[1]; [9],6.5 to 12.5 µM
"CCCCCCCCCCCCCCCCOCCCO[C@@H]1O[C@H](CN)[C@@H](O)[C@H](O)[C@H]1N [Compound 4, 1-O-Hexadecyl-2-deoxy-3-O-(2′6′-diamino-2′,6′-dideoxy-β-D-glucopyranosyl)-sn-glycerol]",CC50,JIMT-1 cells; [10],4 µM
same,CC90,JIMT-1 cells; [11],6 µM
same,CC50,DU145 cells; [12],6 µM
same,CC90,DU145 cells; [13],8.5 µM
same,CC50,MiaPaCa2 cells; [14],6.5 µM
same,CC90,MiaPaCa2 cells; [15],13 µM
same,CC50,[1]; [2],4 to 8.5 µM
"CCCCCCCCCCCCCCCCOC[C@H](CO[C@H]1O[C@H](CN)[C@@H](O)[C@H](O)[C@H]1N)OC [Compound 1, 1-O-Hexadecyl-2-O-methyl-3-O-(2′,6′-diamino-2′,6′-dideoxy-α-D-glucopyranosyl)-sn-glycerol]",CC50,"JIMT-1 cells; Homo sapiens, JIMT-1, Table 1A, 48 h, read-out: CC50 values JIMT1",3.5 µM
same,CC90,"JIMT-1 cells; Homo sapiens, JIMT-1, Table 1B, 48 h, read-out: CC90 values JIMT1",4.9 µM
same,CC50,JIMT-1 cells; [3],3.5 µM
same,CC90,JIMT-1 cells; [4],4.9 µM
same,CC50,"DU145 cells; Homo sapiens, DU-145, Table 1A, 48 h, read-out: CC50 values DU 145",5.2 µM
same,CC90,"DU145 cells; Homo sapiens, DU-145, Table 1B, 48 h, read-out: CC90 values DU 145",7.4 µM
same,CC50,DU145 cells; [5],5.2 µM
same,CC90,DU145 cells; [6],7.4 µM
same,CC50,"MiaPaCa2 cells; Homo sapiens, MIA PaCa-2, Table 1A, 48 h, read-out: CC50 values MiaPaCa2",3.5 µM
same,CC90,"MiaPaCa2 cells; Homo sapiens, MIA PaCa-2, Table 1B, 48 h, read-out: CC90 values MiaPaCa2",6.5 µM
same,CC50,MiaPaCa2 cells; [7],3.5 µM
same,CC90,MiaPaCa2 cells; [8],6.5 µM
same,CC50,[1]; [9],3 to 7.5 µM
same,CC90,"[1]; Homo sapiens, range over the cell lines tested, 48 h, read-out: CC90 (90% loss of cell viability), range depending on cell lines",4.5 to 9.5 µM
"CCCCCCCCCCCCCCCCOC[C@@H](CN=[N+]=[N-])O[C@@H]1O[C@H](CO)[C@@H](O)[C@H](O)[C@H]1N [Compound 6, 1-O-Hexadecyloxy-2R-(2′-amino-2′-deoxy-β-D-glucopyranosyl)-3-azido glycerol]",CC50,JIMT-1 cells; [10],9.5 µM
same,CC90,JIMT-1 cells; [11],13.5 µM
same,CC50,DU145 cells; [12],12.5 µM
same,CC90,DU145 cells; [13],18 µM
same,CC50,MiaPaCa2 cells; [14],11.5 µM
same,CC90,MiaPaCa2 cells; [15],18.5 µM
same,CC50,[1]; [2],6 to 22 µM
"CCCCCCCCCCCCCCCCOCC(CO[C@@H]1O[C@H](CN)[C@@H](O)[C@H](O)[C@H]1N)O[C@@H]1O[C@H](CN)[C@@H](O)[C@H](O)[C@H]1N (stereo partly drawn) [Compound 5, 1-O-Hexadecyloxy-2S/R, 3-di(-2′,6′-diamino-2′, 6′-dideoxy-β-D-glucopyranosyl)-glycerol]",CC50,JIMT-1 cells; [10],> 30 µM
same,CC90,JIMT-1 cells; [11],> 30 µM
same,CC50,DU145 cells; [12],> 30 µM
same,CC90,DU145 cells; [13],> 30 µM
same,CC50,MiaPaCa2 cells; [14],> 30 µM
same,CC90,MiaPaCa2 cells; [15],> 30 µM
same,CC50,[1]; [2],> 30 µM
